The test system of the assay is P. falciparum 3D7 growth, pLDH absorbance. Kind of assay: P. falciparum 3D7 growth inhibition, dose response, strain 3D7 (AID 2305).

As usually defined, the IC50 is the midpoint of a concentration-inhibition curve. Low values mean inhibition by little substance, high ones a need for much substance.

For the compound `COc1ccc(Nc2nccc(N3CCC(NC(=O)C(C)c4ccc(Cl)cc4)CC3)n2)cc1` (stereo not given), the IC50 was 930 nM.
`CN1CCN(c2ncnc3ccc(NC(=O)Nc4ccc(Cl)c(Cl)c4)cc23)CC1` registered a half-inhibitory concentration (IC50) of 260 nM.
In turn, `COc1cc2sc(=NC(=O)c3cccc([N+](=O)[O-])c3)n(C)c2cc1OC` had an IC50 of 720 nM. This IC50 is about 2.8-fold higher than that of the compound before.
As for `O=C(Nc1ccc(N2CCCCC2)c(Cl)c1)c1ccc(Br)o1`, the figure is 550 nM; as for `COc1cc2nc(N3CCC(CNCc4ccc(-c5ccc(C(F)(F)F)cc5)cc4)CC3)nc(N)c2cc1OC`, 90 nM; as for `Cc1ccc(CC(C)(C)NCC(O)c2cccc(C(F)(F)F)c2)cc1` (stereo not given), 840 nM.
As for `O=c1ccc(CNc2nc(NCCc3ccccc3)nc3ccc(Cl)cc23)c[nH]1`, the figure is 780 nM.
As for `CC(CN(C)C)C(=O)Nc1cccc(-c2ccc(-c3nc4ccc(F)cc4[nH]3)s2)c1` (stereo not given), the figure is 800 nM.
`Cc1cccc2[nH]c(-c3cccc(-c4cccc(CNCCNC(=O)c5ccnn5C)c4)c3)nc12` yielded an IC50 of 190 nM. This IC50 lies about 4.2-fold lower than the previous one.
In the case of `CC(C)CNc1nc(N)nc2ccc3c(ccn3CC(C)C)c12`, the IC50 was 650 nM. This IC50 lies about 3.4-fold higher than the previous one.
The compound `CN1CCN(CC(=O)Nc2ccc(-c3ccc(-c4nc5ccc(C(F)(F)F)cc5[nH]4)s3)cc2)CC1` gave an IC50 of 570 nM. The IC50 values of the last two compounds are within 1.5-fold of each other.
Under `CC[C@H]1CN2CC[C@H]1C[C@H]2[C@H](OC(=O)c1ccccc1)c1cc(C#N)nc2ccc(OC)cc12` stands 910 nM; under `CC1CN=C(c2cccc(NC(=O)Nc3cccc(C4=NCC(C)N4)c3)c2)N1` (stereo not given), 360 nM.
Under `CC(C)N1CCC(NCc2ccc(-c3ccc(Cl)cc3)cc2)CC1` stands 650 nM; under `CCNc1cc(C(=O)N[C@@H](Cc2ccccc2)[C@H](O)CNC2(CC(C)C)CC2)cc(N2CCCCS2(=O)=O)c1`, 1020 nM; under `Nc1cccc(CNCc2ccc(-c3cccc(-c4nc5ccc(C(F)(F)F)cc5[nH]4)c3)cc2)c1`, 170 nM.
In turn, `O=C(Nc1cccc(CN2CCN(Cc3ccc(O)cc3)CC2)c1)c1ccc(-c2ccccc2)cc1` yielded an IC50 of 250 nM.
In turn, `COc1ccc2[nH]cc(C3CCN(Cc4ccc(NC(=O)c5ccc(-c6ccccc6)cc5)cc4)CC3)c2c1` had an IC50 of 770 nM.
`Cc1nc(N)nc(N)c1CCCOc1ccccc1Cl` returned an IC50 of 220 nM.
Under `O=C(/C=C/c1ccccc1Cl)Nc1ccc(Br)c(OCCN2CCN(CCN3CCOCC3)CC2)c1` stands 760 nM; under `O=C(NCc1cccs1)[C@H](Cc1ccccc1)Nc1ccnc(NCCc2ccc(F)cc2)n1`, 1450 nM.
As for `CN1CCN(Cc2cccc(-c3ccc4c(Nc5ccc(F)cc5Cl)ccnc4c3)c2)CC1`, the figure is 160 nM; as for `CN(c1cc(NC(=O)c2ccc(F)cc2)ccn1)C1CCN(Cc2ccc(C#N)cc2)CC1`, 1510 nM.
As for `CCCCSc1nc2c(c(=O)n1Cc1ccco1)C1(CCCCC1)Cc1ccccc1-2`, the figure is 960 nM.
The compound `c1cncc(CCNCc2ccc(-c3ccc(-c4nc5ccccc5[nH]4)s3)cc2)c1` gave a concentration for half-maximal inhibition (IC50) of 210 nM.
As for `Cc1nnsc1C(=O)Nc1cccc(-c2ccc(-c3nc4c(C)cccc4[nH]3)s2)c1`, the figure is 1120 nM; as for `N#Cc1ccc(CN2CCC(Oc3ccc(NC(=O)c4cccs4)cc3)CC2)cc1`, 1030 nM; as for `COc1cccc(CCN(Cc2ccccc2-c2ccc(CNC3CC(C)(C)NC(C)(C)C3)cc2)C(=O)NC2CCCCC2)c1`, 930 nM.
`CN1CCN(S(=O)(=O)c2ccc3nccc(Nc4ccc(Oc5ccccc5)cc4)c3c2)CC1`: the IC50 was found to be 820 nM.
As for `COc1ccc(CNC(=O)NC2CCN(c3ccnc(Nc4ccc(F)cc4)n3)C2)cc1` (stereo not given), the figure is 840 nM; as for `C=CCn1c(=N)n(CC(O)c2ccc(Cl)c(Cl)c2)c2ccccc21` (stereo not given), 340 nM.
Under `C[C@@H]1CCC[C@H](C)N1C[C@@H](O)CNS(=O)(=O)c1cccc(C(F)(F)F)c1` stands 690 nM.
`Cc1cccc(CN2CCC(Oc3ccc(NC(=O)c4cccs4)cc3Cl)CC2)n1` gave an IC50 of 840 nM.
Under `OC(CNc1cccc(Cl)c1)Cn1c2ccc(Cl)cc2c2cc(Cl)ccc21` (stereo not given) stands 960 nM; under `Cc1ccc(-c2cc(C(=O)Nc3ccc(S(=O)(=O)N(C)Cc4ccccc4)cc3)[nH]n2)c(O)c1`, 850 nM; under `Cc1ccc(N2C(N)=NC(N)=NC2(C)C)cc1Cl`, 10 nM.
Under `COc1ccc(-c2cccc(NC(=O)c3cccc(C#N)c3)c2)cc1CN(C)CCN(C)C` stands 310 nM; under `Cc1[nH]c(C)c(-c2ccc(Oc3ccc(S(C)=O)cc3)cc2)c(=O)c1Br` (stereo not given), 760 nM.
The compound `COc1ccc(CNCc2ccccc2)cc1-c1cccc(S(=O)(=O)NCCN2CCCC2)c1` had an IC50 of 790 nM. This IC50 and that of the compound before are within 1.5-fold of each other.
Compound `O=S(=O)(c1c(Cl)cc(Cl)cc1Cl)N1CCCCC(c2ccc(F)c(F)c2)=N1` yielded a concentration for half-maximal inhibition (IC50) of 590 nM.
As for `Clc1cc(Cl)cc(Nc2ccnc(Nc3cc(Cl)cc(Cl)c3)n2)c1`, the figure is 670 nM.
As for `O=C(/C=C/c1ccc(Cl)c(Cl)c1)NCCCCCCN1CCCN(C(=O)Nc2cc(Cl)cc(Cl)c2)CC1`, the figure is 780 nM; as for `CCOC(=O)N1CCN(CCCCCNc2cc(C)nc(/N=C(\N)Nc3ccc(Cl)cc3)n2)CC1`, 150 nM; as for `Cc1ccc(C(=O)NC2CC2)cc1-c1ccc2c(cnn2S(=O)(=O)c2ccc(F)cc2)c1`, 290 nM.
`Nc1nc(N)c2c3c(ccc2n1)CCC3` returned an IC50 of 930 nM.
As for `NC(N)=NN=Cc1c2ccccc2c(Cl)c2ccc(Cl)cc12`, the figure is 230 nM; as for `COc1ccc(C2N=C(N)N=C(N)N2c2ccc(Cl)cc2)cc1OC` (stereo not given), 1000 nM.
Under `CCCCCN1CCC(CNS(=O)(=O)c2ccc(C(=O)Nc3cccc(C(F)(F)F)c3)cc2)CC1` stands 750 nM.
`O=C(c1cc2c(s1)-c1cccc(Cl)c1SC2)N1CCN(c2ccncc2)CC1` registered a concentration for half-maximal inhibition (IC50) of 1010 nM. This IC50 and that of the compound before are within 1.5-fold of each other.
Under `COc1ccc2ncc(Cl)c(CCN3CCC(NCc4ccc5c(n4)NC(=O)CO5)CC3)c2c1` stands 470 nM; under `CC(C)(C)c1ccc(CN2CCC(CNC(=O)c3cc(-c4ccccc4Cl)cs3)C2)cc1` (stereo not given), 860 nM.
Under `N#Cc1cccc(C(=O)Nc2cccc(-c3ccc(CN4CCC(O)CC4)cc3)c2)c1` stands 1300 nM; under `Cc1[nH]c(C)c(-c2ccc(-c3ccccc3F)nc2)c(=O)c1Cl`, 250 nM; under `CC[C@H]1CN2CC[C@H]1C[C@H]2[C@H](O)c1cc(-c2cccc(Cl)c2)nc2ccc(OC)cc12`, 170 nM.
Under `O=S(=O)(NC1CCN(c2ccnc3cc(Cl)ccc23)C1)c1ccc(C(F)(F)F)cc1` (stereo not given) stands 300 nM; under `CN(C)CCCNc1ncnc2c1[nH]c1ccc(F)cc12`, 730 nM; under `Cc1ccc2nc(/C=C/c3cccc4cc[nH]c34)[nH]c2c1`, 1180 nM.
Regarding `COc1cccc2c1CCN(CCN1CCC(CNC(=O)c3ccc(-c4ccc(C#N)cc4)cc3)CC1)C2`, the IC50 worked out at 760 nM.
In the case of `CC[C@H]1CN2CC[C@@H]1C[C@H]2[C@H](O)c1cc(N2CCC(c3ccccc3)CC2)nc2ccc(OC)cc12`, the IC50 turned out to be 350 nM. Compared with the last compound, the IC50 is about 2.2-fold lower.
As for `CC(C)Nc1cc(C(=O)N[C@@H](Cc2ccccc2)[C@H](O)CNC(C)(C)c2cccc(C(F)(F)F)c2)cc(N2CCCCS2(=O)=O)c1`, the figure is 80 nM.
As for `C[C@@H]([C@@H](CCCc1ccc(Cl)cc1)C(=O)N[C@H](C(=O)Nc1cccnc1)C(C)(C)C)N(O)C=O`, the figure is 720 nM.
Under `Cc1ccccc1C1CCN(C2CCC(NC(=O)/C=C/c3ccc(Cl)cc3)CC2)CC1` (stereo not given) stands 800 nM; under `COc1cccc2c(NN=Cc3cccc(Cl)c3)ccnc12`, 840 nM.
With `COc1ccc(Cl)cc1N1CCN(CCCNC(=O)c2ccc(-c3nc4cc5ccccc5cc4[nH]3)c(F)c2)CC1`, the IC50 stood at 800 nM. The IC50 values of the last two compounds are within 1.5-fold of each other.
As for `COc1ccc(-c2ccc(NC(=O)c3cccc(Cl)c3)cc2)cc1CN1CCN(C)CC1`, the figure is 950 nM; as for `Cc1ccc(-c2ccc3c(c2)C=C(C(=O)NCC2CCN(CC4CCN(C(=O)/C=C/c5ccc(Cl)c(Cl)c5)CC4)CC2)CCC3)cc1`, 780 nM; as for `COc1cc(NC(=O)c2cccs2)c(OC)cc1NC(=O)Nc1cccc(Cl)c1`, 1000 nM.
Under `COc1cc(NC(=O)c2cc3c(C)nn(-c4cccc(C(F)(F)F)c4)c3s2)cc(OC)c1OC` stands 800 nM; under `CC(C)C1=C[C@H]2C[C@]3(C4OCCO4)[C@@H]4CC[C@@H](C)[C@H]4C[C@@]2(COCc2cccc(C#N)c2)[C@]13C(=O)OC(c1ccccc1)c1ccccc1`, 1790 nM.
Under `CCN(CC)CCCN(Cc1ccc(-c2ccc(C(F)(F)F)cc2)cc1)C(=O)Cn1c(SCc2cccc(F)c2F)cc(=O)c2ccccc21` stands 1320 nM; under `N/C(=N/C(=NCCCCCCN=C(/N=C(/N)Nc1ccc(Cl)cc1)N1CCCCC1)N1CCCCC1)Nc1ccc(Cl)cc1`, 260 nM.
Compound `O=C(NCCCCN1CCC(c2c[nH]c3ccc(-c4ccccc4)cc23)CC1)c1ccc(-c2ccccc2)cc1` came in with an IC50 of 990 nM.
Under `CCN(CC)CCOc1ccc(N(Cc2ccc(C(C)(C)C)cc2)C(=O)c2ccc(Cc3ccccc3)cc2)cc1OC` stands 770 nM.
Under `Cc1cc(Cl)ccc1N(Cc1ccccc1)c1ccnc(Cl)n1` stands 860 nM; under `COc1cc(-c2ccccc2)ccc1C(=O)Nc1ccc2c(c1)N(C)CCC2`, 330 nM; under `C=CCn1c(SCC(=O)Nc2cc(C)ccc2OC)nc2sc(C)cc2c1=O`, 420 nM.
As for `CC(C)CCN1CCC(Oc2ccc(NC(=O)c3ccc4ncccc4c3)cc2Cl)C1` (stereo not given), the figure is 970 nM.
As for `COc1ccc2ncc(C#N)c(CCN3[C@@H]4CC[C@H]3CC(NCc3ccc5c(n3)NC(=O)CS5)C4)c2c1` (stereo not given in full), the IC50 was 810 nM. The IC50 values of the last two compounds are within 1.5-fold of each other.
Under `Cc1cccc2[nH]c(-c3cccc(-c4ccc(NC(=O)Nc5ccc6c(c5)OCO6)cc4)c3)nc12` stands 140 nM.
As for `OCCNc1nc(Nc2ccc(F)cc2)nc2ccccc12`, the figure is 160 nM; as for `C=C1C[C@@H](n2cnc3c(NC(=O)c4ccccc4)ncnc32)[C@@H](F)[C@@H]1OC(c1ccccc1)(c1ccccc1)c1ccccc1`, 140 nM.
In turn, `Cc1noc(=O)c2ccc(NC(=O)C(O)(CSc3ccccc3)CC(C)C)cc12` (stereo not given) gave an IC50 of 720 nM. This IC50 is about 5.1-fold higher than that of the compound before.
As for `CCc1c(C(=O)NC2CCC(N3CCC(c4ccccc4C)CC3)CC2)[nH]c2ccc(Br)cc12` (stereo not given), the figure is 930 nM.
Under `CCCN(CCC)CCCNc1ccc(C(=O)Nc2ccc(OCC)cc2)cc1[N+](=O)[O-]` stands 990 nM; under `CCCc1cc(=O)[nH]c(-n2nc(C)cc2NC(=O)C(CC)c2ccccc2)n1` (stereo not given), 940 nM.

Values taken from PubChem BioAssay AID2305 (GlaxoSmithKline (GSK), 2010).
